Experimental data published in patent US20090130128A1, “Antiinfective Proanthocyanidin Compounds and Methods of Use Thereof” (priority 2007, published 2009).
Like-named read-outs stand apart in the source and are kept apart here.

Experiments:
[1] = system: pseudotyped HIV-1 virions; type: cell-based; details: GHOST cells, range over clones
H1N1 virions = experiment: Viral Direct Binding Assay with DART TOF-MS; set-up: species or system Influenza A virus (H1N1); details: for relative percent of total binding species: bound to H1N1 after incubation in botanical extract
H5N1 virions = type: binding, Influenza A virus (H5N1); details: for relative percent of total binding species: bound to H5N1 after incubation in botanical extract
HIV-1 virions = type: binding
Dengue-2 virus particles = experiment: Viral Direct Binding Assay with DART TOF-MS
Rhinovirus particles = type: binding
[2] = bound to Den-2 after incubation in botanical extract

Compound	IC100 values for HIV-1 infection [1]	relative percent of total binding species (H1N1 virions)	relative percent of total binding species (H5N1 virions)	relative percent of total binding species (HIV-1 virions)	relative percent of total binding species (Dengue-2 virus particles; [2])	relative percent of total binding species (Rhinovirus particles)	Aver:Istro Ratio (H1N1 virions; binding ratio Averionol to Istrocyanidin on H1N1)	Aver:Istro Ratio (H5N1 virions; binding ratio Averionol to Istrocyanidin on H5N1)	Aver:Istro Ratio (HIV-1 virions)	Aver:Istro Ratio (Dengue-2 virus particles)	relative percent of total binding species (Dengue-2 virus particles)	Aver:Istro Ratio (Rhinovirus particles)
Proanthocyanidin B2	never achieved	–	–	–	–	–	–	–	–	–	–	–
Istrocyanidin	–	3.7%	6.2%	14.4%	21.2%	30.5%	–	–	–	–	–	–
Tristenonol	–	26.6%	6.9%	0%	0%	0%	–	–	–	–	–	–
COc1cc(OC)c2c(=O)c(O)c(-c3ccc(OC)c(OC)c3)oc2c1 [Averionol]	–	69.8%	86.9%	85.6%	–	69.5%	18.9	14.0	5.9	3.7	78.5%	2.3
